Laboratory results as given in patent publication US4980365A, “N-substituted-5,6-dimethoxy-1,2-benzisoxazole-3-propanamine and related compounds as analgesic and hypotensive agents” (Hoechst-Roussel Pharmaceuticals Inc., priority 1987, dated 1990).
Where two headings read alike, the source gives them in different places.

How the values were obtained:
[1] = tested on: spontaneous hypertensive rat; assay: Antihypertensive activity in the spontaneous hypertensive rat, indirect tail cuff method; assay type: in vivo; conditions: at 50 mg/kg, p.o.; treated orally for three days, measured on the third day
Procedure: Compounds of the present invention are also useful as antihypertensive agents due to their ability to depress blood pressure in mammals. Antihypertensive activity is measured in the spontaneous hypertensive rat by the indirect tail cuff method described in "Methods in Pharmacology", A. Schwartz, Ed., Vol. I, Appleton-Century Crofts, New York, N.Y., 1971, p. 135. In this procedure a group of five animals are treated orally for three days with the test compound in relation to a control group of the same number. The drop in blood pressure is measured on the third day following administration. The antihypertensive activities of some of the compounds, expressed as a decrease in mean arterial blood pressure (in mm Hg), are given in Table 2.

[2] = tested on: 2-phenyl-1,4-benzoquinone-induced writhing; assay: 2-phenyl-1,4-benzoquinone-induced writhing test in mice (analgesic activity, phenylquinone writhing); assay type: in vivo; conditions: Mus musculus, sc, read-out: ED50 (Analgesic Activity, Phenylquinone Writhing)
Text: Compounds of this invention having formula I are useful as analgesic agents due to their ability to alleviate pain in mammals. […] Exptl. Biol. Med. […], 729 (1957)].

α1-adrenergic receptor = assay: [3H]-WB4101: α1-adrenergic receptor binding in rat brain; conditions: rat brain membranes minus cerebella, 0.5 nM 3H-WB4101, pH 7.7, 15 minutes; read-out: [3H]-WB4101: α1-Adrenergic Receptor (IC50) Antagonist Activity
Procedure: RECEPTOR BINDING IN RAT BRAIN
This in vitro [^3 H]-WB4101 receptor binding assay quantitates the primary blood pressure lowering effects through α1 -receptor blockade. […] WB4101 labels an antagonist binding site on the α1 -adrenoceptor, since it is preferentially displaced by antagonists while α-noradrenergic agonists preferentially displace the ^3 H-agonists
57.2 g Tris HCl 16.2 g Tris base q.s. to 1 liter (0.5M Tris buffer, pH 7.7 at 25° C.).
Make a 1:10 dilution in distilled H2 O (0.05M Tris Buffer, pH 7.7)
[Phenoxy-3-^3 H(N)]-WB4101, (2-(2,6-dimethoxyphenoxyethyl)aminomethyl-1,4-benzodioxane, (20-25 Ci/mmol) is obtained from New England Nuclear.
L-norepinephrine bitartrate is obtained from Sigma Chemical Co.
A 10 mM stock solution of norepinephrine is made up in 0.01N HCl and 20 micro liter added to three tubes to determine nonspecific binding. This yields a final concentration of 100 micro liter in the assay.
For most assays, a 1 mM stock solution is made up in a suitable solvent and serially diluted, such that the final concentration in the assay ranges from 10^-5 to 10^-8 M. Seven concentrations are usually used for each assay.
Male Wistar rats (100-150 g) are killed by decapitation and their brains rapidly removed. […]
Sample tubes are kept on ice for additions, then vortexed and incubated for 15 minutes at 15° C. […] The filters are counted in 10 ml of liquid scintillation cocktail. […]

COc1cc2onc(CCCN3CCN(c4ccccc4OC)CC3)c2cc1OC [3-[3-[4-(2-methoxyphenyl)-1-piperazinyl]propyl]-5,6-dimethoxy-1,2-benzisoxazole]
Pressure Drop (decrease in mean arterial blood pressure) [1]: 68 mmHg | ED50 ([2]; mice): 1.7 mg/kg

CC(C)=CCN1CCC2(C)c3cc(O)ccc3CC1C2C (stereo not drawn) [pentazocine, reference compound]
ED50 [2]: 1.3 mg/kg

COc1cc2onc(CCCN(C)CCc3ccccc3)c2cc1OC.O=C(O)C(=O)O [N-methyl-N-(2-phenylethyl)-5,6-dimethoxy-1,2-benzisoxazole-3-propanamine oxalate]
IC50 (α1-adrenergic receptor): 67 nM | ED50 ([2]; mice): 13.6 mg/kg

COc1cc2onc(CCCNCCc3ccccc3)c2cc1OC.Cl [N-(2-phenylethyl)-5,6-dimethoxy-1,2-benzisoxazole-3-propanamine hydrochloride]
Pressure Drop (decrease in mean arterial blood pressure) [1]: 32 mmHg | IC50 (α1-adrenergic receptor): 83 nM

COc1ccc([C@@H]2Sc3ccccc3N(CCN(C)C)C(=O)[C@@H]2OC(C)=O)cc1 [Diltiazem, reference compound]
Pressure Drop (decrease in mean arterial blood pressure) [1]: 39 mmHg

COc1cc2onc(CCCNCCc3ccc(F)cc3)c2cc1OC.Cl [N-[2-(4-fluorophenyl)ethyl]-5,6-dimethoxy-1,2-benzisoxazole-3-propanamine hydrochloride]
ED50 ([2]; mice): 3.8 mg/kg
